Measurements: patent US10772847B1, “Combinational fendiline formulations and uses thereof” (UNIVERSITY OF SOUTH FLORIDA, priority 2016, dated 2020)

Key:
[1] = system: P-Aurora ABC; test: Fluorescent microscopy of p-Aurora ABC in CD18 cells; assay type: cell-based; details: about 24 hours of treatment, FIGS. 26A-26C
Method: FIGS. 26A-26C show fluorescent microscopic images of CD18 cells treated with fendiline or Tivantinib as compared to untreated after about 24 hours of treatment and staining with antibodies against p-Aurora ABC or a-tubulin and counterstained with Hoechst.

[2] = system: cancer cells; details: shown earlier (introduction); cited from earlier work
[3] = system: ADAM10; details: shown recently (introduction); cited from earlier work

CC(NCCC(c1ccccc1)c1ccccc1)c1ccccc1 (stereo not drawn) [fendiline]
aurora ABC phosphorylation [1]: inhibit | cytotoxicity in cancer cells [2]: induces cytotoxicity | ADAM10 inhibition [3]: inhibits
